Data set [1] concerns patients with treatment-resistant depression (TRD). The data set is described as follows: CGI-S (Example 7). The class given is in vivo, human. How it is done: Overall illness severity was assessed on the Clinical Global Impression of Severity (CGI-S) scale (Guy, “ECDEU Assessment Manual for Psychopharmacology—Revised (DHEW Publ No ADM 76-338)”, Rockville, Md.: U.S. Department of Health, Education, and Welfare, Public Health Service, Alcohol, Drug Abuse, and Mental Health Administration, NIMH Psychopharmacology Research Branch, Division of Extramural Research Programs; 1976, pp 218-222). Participants assessed their severity of anxiety on the Generalized Anxiety Disorder 7-item (GADS-7) Scale (See, Tables 157 and 158). See, Spitzer, “A brief measure for assessing generalized anxiety disorder—the GAD-7”, Arch. Intern. Med., 2006, 166(10): 1092-1097.

For data set [2], the system named is P-gp, BCRP, OATP1B1, OATP1B3, MATE1, MATE2-K, OCT2, OAT1, OAT3. The data set is described as follows: Transporter substrate and inhibition studies. The settings on record: not told.
The test system of the next data set is patients with TRD. The data set is described as follows: Adverse reactions in SPRAVATO clinical trials (label). Type of data set: in vivo, human. The settings on record: up to 4 weeks after cessation of treatment. How it is done: SPRAVATO was evaluated for safety in 1709 patients diagnosed with treatment resistant depression (TRD) [see Clinical Studies (14.1, 14.2)] from five Phase 3 studies (3 short-term and 2 long-term studies) and one Phase 2 dose-ranging study. Of all SPRAVATO-treated patients in the completed Phase 3 studies, 479 (30%) received at least 6 months of treatment, and 178 (11%) received at least 12 months of treatment.
In short-term studies in adults<65 years old (Study 1 pooled with another 4-week study), the proportion of patients who discontinued treatment because of an adverse reaction was 4.6% in patients who received SPRAVATO plus oral AD compared to 1.4% for patients who received placebo nasal spray plus oral AD. For adults 65 years old, the proportions were 5.6% and 3.1%, respectively. In Study 2, a long-term maintenance study, the discontinuation rates because of an adverse reaction were similar for patients receiving SPRAVATO plus oral AD and placebo nasal spray plus oral AD in the maintenance phase, at 2.6% and 2.1%, respectively.
SPRAVATO can cause nausea and vomiting (Table 7). Most of these events occurred on the day of dosing and resolved the same day, with the median duration not exceeding 1 hour in most subjects across dosing sessions. […]

In data set [3] the test system is subjects with MDD at imminent risk for suicide. The settings on record: post dose.
Experimental: The CADSS was measured prior to the start of each dose, at 40 minutes, 2 hours, and 4 hours postdose.
A further data set relates to subjects with TRD. The following applies: post dose.
[4] abbreviates: Period 1, esketamine 28 mg intranasal.
Setting [5] is: Period 1, esketamine 56 mg intranasal.
Where [6] appears, read: Period 1, esketamine 84 mg intranasal.
The mark [7] stands for this setting: Period 2, esketamine 28 mg intranasal.
[8] abbreviates: Period 2, esketamine 56 mg intranasal.
[9] abbreviates: Period 2, esketamine 84 mg intranasal.

Where only a bound is given, the exact number is not on record here.

Experimental for subjects with TRD: The Clinician Administered Dissociative States Scale (CADSS) was measured prior to the start of each dose, at 40 minutes, and 1.5 hours postdose.

For the molecule `CN[C@]1(c2ccccc2Cl)CCCCC1=O` [esketamine, (S)-2-(2-chlorophenyl)-2-(methylamino)cyclohexanone], the “CGI-S Median (Range) at end point” value in data set [1] (setting [4]) was 4.0 (3, 5); in data set [1] (setting [5]), 4.0 (1, 5); in data set [1] (setting [6]), 4.0 (1, 6); in data set [1] (setting [7]) it was 4.0 (3, 5); in data set [1] (setting [8]), 5.0 (4, 6); in data set [1] (setting [9]) it was 4.0 (3, 5). For the same molecule, the “CGI-S Median Change (Range)” value is recorded as −1.0 (−2, 1) in data set [1] (setting [4]); −1.0 (−3, 0) in data set [1] (setting [5]); −0.5 (−4, 0) in data set [1] (setting [6]); −1.0 (−1, 0) in data set [1] (setting [7]); −1.0 (−2, 0) in data set [1] (setting [8]); −1.0 (−2, 0) in data set [1] (setting [9]). In addition, the “Inhibition of P-gp, BCRP, OATP1B1, OATP1B3, MATE1, MATE2-K, OCT2, OAT1 or OAT3” value in data set [2] is “do not inhibit”. Also, the “Substrate of P-gp, BCRP, OATP1B1 or OATP1B3” value in data set [2] is reported as “not a substrate”. Moreover, the Withdrawal symptoms entry with patients with TRD is “no withdrawal symptoms”. Besides, the “Dissociative and perceptual change symptoms (CADSS) resolved by” value was at most 2 h in data set [3] and at most 1.5 h in the data set on subjects with TRD.
